According to paper PMC9953095, “Design, Synthesis and Biological Evaluation of Quinazolinamine Derivatives as Breast Cancer Resistance Protein and P-Glycoprotein Inhibitors with Improved Metabolic Stability” (Biomolecules, 2023):
“And” between values parts separate entries of the source, which are not always exact repeats. Equal entries are not always repeated.

Legend:
P-gp ATPase = molecular target: T1, P-gp ATPase (Homo sapiens, UniProt P08183); assay: Vanadate-sensitive P-gp ATPase assay; type: biochemical; conditions: membrane vesicles of High Five insect cells; Figure 10C
T1 construct: host or cells: High Five insect cells (membrane vesicles)
Description: (§1) The vanadate (Vi)-sensitive ATPase activity of BCRP and P-gp in the membrane vesicles of High Five insect cells was measured as described previously. The results were presented as vanadate-sensitive ATPase activities by determining the difference in inorganic phosphate liberation measured in the presence and absence of sodium orthovanadate.

[1] = Metabolic stability with human liver microsomes; type: in vitro ADME; conditions: after 1 h of incubation with human liver microsomes, 37 °C, NADPH; note: tested at 200 µM
Description: Human liver microsome (20 mg/mL) 6.25 µL, nicotinamide adenine dinucleotide phosphate (NADPH) (0.75 µmol), MgCl2 (0.75 µmol), and the test compound (0.05 µmol) were added into a potassium phosphate buffer (pH 7.4) with 250 µL of final volume. The incubation was carried out aerobically at 37 °C. The mixture was pre-incubated without NADPH for 10 min at 37 °C and NADPH was added to start the reaction. At 1 h after the start of the reaction, an aliquot (50 µL) of the incubation mixture was taken from each incubation and mixed with 150 µL of ice-cold acetonitrile to terminate the reaction. Subsequently, the sample was centrifuged (12,000 rpm) at room temperature. The resulting supernatant was filtered and analyzed using HPLC (LC, Agilent 1200; column, HC-C18(2); column temperature, 25 °C; mobile phase, solvent A, methanol, solvent B, water; gradient elution, 30–99% solvent A; flow rate, 1 mL/min; UV signals were recorded at 254 nm).

BCRP ATPase = molecular target: T2, BCRP ATPase (Homo sapiens, UniProt Q9UNQ0); assay: Vanadate-sensitive BCRP ATPase assay; type: biochemical; conditions: membrane vesicles of High Five insect cells; Figure 10A,B
T2 construct: host or cells: High Five insect cells (membrane vesicles)
T2 sequence (Q9UNQ0 1-655): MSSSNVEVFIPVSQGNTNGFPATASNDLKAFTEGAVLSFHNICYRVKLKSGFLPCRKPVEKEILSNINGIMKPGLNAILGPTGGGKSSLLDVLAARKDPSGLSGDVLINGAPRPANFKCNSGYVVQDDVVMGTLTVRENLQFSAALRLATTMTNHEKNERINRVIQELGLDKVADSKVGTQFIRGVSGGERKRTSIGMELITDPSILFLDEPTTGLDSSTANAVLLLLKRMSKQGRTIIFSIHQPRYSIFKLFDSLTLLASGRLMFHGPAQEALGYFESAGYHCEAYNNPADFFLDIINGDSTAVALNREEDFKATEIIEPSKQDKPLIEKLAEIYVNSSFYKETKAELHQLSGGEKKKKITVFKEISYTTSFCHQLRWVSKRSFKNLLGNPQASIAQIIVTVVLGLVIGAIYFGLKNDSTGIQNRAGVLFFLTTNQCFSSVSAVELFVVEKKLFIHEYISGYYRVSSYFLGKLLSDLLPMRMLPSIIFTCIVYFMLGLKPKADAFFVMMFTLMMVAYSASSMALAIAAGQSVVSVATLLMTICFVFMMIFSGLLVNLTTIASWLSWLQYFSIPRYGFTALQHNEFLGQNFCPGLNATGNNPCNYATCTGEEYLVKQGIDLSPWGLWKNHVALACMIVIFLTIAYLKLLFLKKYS
Description: as §1

T1 sequence (P08183 whole entry): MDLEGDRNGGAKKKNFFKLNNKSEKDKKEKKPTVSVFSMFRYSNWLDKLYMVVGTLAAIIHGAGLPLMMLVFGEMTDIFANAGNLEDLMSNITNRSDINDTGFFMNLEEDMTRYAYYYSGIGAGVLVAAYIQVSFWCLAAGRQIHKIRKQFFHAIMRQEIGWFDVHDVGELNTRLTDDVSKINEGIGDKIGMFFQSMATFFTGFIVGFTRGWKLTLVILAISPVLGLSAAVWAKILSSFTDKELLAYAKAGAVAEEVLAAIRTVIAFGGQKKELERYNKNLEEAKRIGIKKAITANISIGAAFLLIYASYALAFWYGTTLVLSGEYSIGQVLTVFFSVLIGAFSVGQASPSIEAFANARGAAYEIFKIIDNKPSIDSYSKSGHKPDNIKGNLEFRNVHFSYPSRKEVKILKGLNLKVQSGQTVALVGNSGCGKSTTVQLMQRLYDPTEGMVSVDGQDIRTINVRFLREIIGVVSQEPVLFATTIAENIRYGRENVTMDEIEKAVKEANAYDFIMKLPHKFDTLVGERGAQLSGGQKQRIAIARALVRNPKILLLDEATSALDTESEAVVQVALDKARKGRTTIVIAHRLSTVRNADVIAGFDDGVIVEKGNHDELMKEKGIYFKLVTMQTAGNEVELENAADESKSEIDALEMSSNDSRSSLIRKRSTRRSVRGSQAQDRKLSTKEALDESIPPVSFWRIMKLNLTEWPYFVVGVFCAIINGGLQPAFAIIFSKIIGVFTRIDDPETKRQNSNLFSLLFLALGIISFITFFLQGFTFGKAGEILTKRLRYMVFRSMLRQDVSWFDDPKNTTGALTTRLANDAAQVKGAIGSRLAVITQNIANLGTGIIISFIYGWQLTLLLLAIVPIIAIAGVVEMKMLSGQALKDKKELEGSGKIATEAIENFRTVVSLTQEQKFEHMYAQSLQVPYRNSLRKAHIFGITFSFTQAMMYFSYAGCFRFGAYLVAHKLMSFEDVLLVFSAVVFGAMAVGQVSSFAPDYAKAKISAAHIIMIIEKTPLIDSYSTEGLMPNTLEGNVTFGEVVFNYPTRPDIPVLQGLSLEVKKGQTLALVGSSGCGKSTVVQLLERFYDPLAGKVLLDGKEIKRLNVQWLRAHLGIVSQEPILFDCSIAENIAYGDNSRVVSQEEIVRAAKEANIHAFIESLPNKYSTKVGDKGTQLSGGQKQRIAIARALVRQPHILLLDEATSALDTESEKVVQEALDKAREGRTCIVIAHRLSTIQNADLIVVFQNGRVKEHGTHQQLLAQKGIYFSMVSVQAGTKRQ

Structure (SMILES): c1ccc2c(Nc3ccc(C4CC4)cc3)nc(-c3ccncc3)nc2c1 [Compound 22, N-(4-Cyclopropylphenyl)-2-(pyridin-4-yl)quinazolin-4-amine]
- effect on Vi-sensitive P-gp ATPase activity (P-gp ATPase): neither stimulate or inhibit
- Metabolic Stability, % compound remaining [1]: 92% and 92 ± 8%
- effect on Vi-sensitive BCRP ATPase activity (ATP hydrolysis) (BCRP ATPase): significantly stimulated
